Measurements published in patent US20230159511A1, “TETRAHYDROISOQUINOLINE COMPOUNDS AS NRF2 ACTIVATORS” (C4X Discovery Limited, priority 2020, published 2023).

What follows are molecules tested against T1, human KEAP1 (N-term, residues 321-609) (Homo sapiens, UniProt Q14145) (assay: KEAP1 Kelch Fluorescence Polarization (FP) Assay). Details: inhibition of Kelch domain-NRF2 interaction; 2 nM FITC-labelled NRF2 peptide, 25 nM KEAP1, 1 h room temperature; compounds below 10 nM cannot be differentiated.
T1 construct: human KEAP1 (N-term, residues 321-609)
T1 sequence (Q14145 321-609): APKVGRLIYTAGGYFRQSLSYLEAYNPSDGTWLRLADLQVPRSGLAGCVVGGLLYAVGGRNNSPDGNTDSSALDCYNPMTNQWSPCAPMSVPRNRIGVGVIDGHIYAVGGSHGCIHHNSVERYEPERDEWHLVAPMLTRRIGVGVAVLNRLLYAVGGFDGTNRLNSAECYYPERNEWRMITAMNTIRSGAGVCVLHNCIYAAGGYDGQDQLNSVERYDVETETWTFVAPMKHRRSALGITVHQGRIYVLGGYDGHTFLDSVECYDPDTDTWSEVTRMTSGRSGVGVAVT
Assay type: binding
Experimental: KEAP1 Kelch Fluorescence Polarization (FP) Assay Method
Inhibition of the Kelch domain-NRF2 interaction was determined using a fluorescence polarization-based competition assay in a black 384-well microplate. Compounds were tested at a starting concentration of 10 μM serially diluted 1:3 to generate a 12-point dose response curve on the Biomek FX robot. Each well contained 2 nM FITC-labelled NRF2 peptide (FITC-LDEETGEFL-NH2) and 25 nM human KEAP1 (N-term, residues 321-609) enzyme in a final volume of 20 μL of assay buffer (50 mM Tris-HCl pH 8.0, 100 mM NaCl, 5 mM MgCl2, 0.005% Tween-20, 0.005% BSA, 0.5% DMSO) in the presence of varying concentrations of test compound. Unlabelled peptide (LDEETGEFL-NH2) at 50 μM (negative control) and 0.5% DMSO (positive control) was used to determine the assay window.
After 1 h at room temperature, fluorescence polarization (excitation 470 nm/emission 530 nm) was measured using an Envision plate reader. IC50 values were determined by fitting the data to a four parameter logistic fit using XLfit or XE Runner within ActivityBase. The assay limit is such that compounds below 10 nM cannot be differentiated.

IC50 [nM]	SMILES
8200	CNC(=O)[C@H]1CCCC[C@H]1C(=O)N1CCc2cccc(O[C@H]3CCN(C(=O)c4cncs4)C3)c2[C@H]1CNC(=O)C1CC1 [Example 38, (1S,2R)-2-((S)-1-(cyclopropanecarboxamidomethyl)-8-(((S)-1-(thiazole-5-carbonyl)pyrrolidin-3-yl)oxy)-1,2,3,4-tetrahydroisoquinoline-2-carbonyl)-N-methylcyclohexane-1-carboxamide]
3010	CNC(=O)[C@H]1CCCC[C@H]1C(=O)N1CCc2cccc(OCc3ccn[nH]3)c2[C@H]1CN1C(=O)c2ccccc2C1=O [Example 39, (1S,2R)-2-((S)-8-((1H-pyrazol-5-yl)methoxy)-1-((1,3-dioxoisoindolin-2-yl)methyl)-1,2,3,4-tetrahydroisoquinoline-2-carbonyl)-N-methylcyclo hexane-1-carboxamide]
93	CNC(=O)[C@H]1CCCC[C@H]1C(=O)N1CCc2cccc(O[C@H]3CCN(C(=O)c4cccnc4)C3)c2[C@H]1CN1C(=O)c2ccccc2C1=O [Example 15, (1S,2R)-2-((S)-1-((1,3-dioxoisoindolin-2-yl)methyl)-8-(((S)-1-nicotinoylpyrrolidin-3-yl)oxy)-1,2,3,4-tetrahydroisoquinoline-2-carbonyl)-N-methylcyclohexane-1-carboxamide]
294	CNC(=O)[C@H]1CCCC[C@H]1C(=O)N1CCc2cccc(O[C@H]3CCN(C(=O)c4csc(C)n4)C3)c2[C@H]1CN1C(=O)c2ccccc2C1=O [Example 24, (1S,2R)-2-((S)-1-((1,3-dioxoisoindolin-2-yl)methyl)-8-(((S)-1-(2-methylthiazole-4-carbonyl)pyrrolidin-3-yl)oxy)-1,2,3,4-tetrahydroisoquinoline-2-carbonyl)-N-methylcyclohexane-1-carboxamide]
533	CNC(=O)[C@H](C)[C@@H](C)C(=O)N1CCc2c(Cl)ccc(OCc3noc(C(C)C)n3)c2[C@H]1CN1CCCC1=O [Example 59, (2R,3R)-4-((S)-5-chloro-8-((5-isopropyl-1,2,4-oxadiazol-3-yl)methoxy)-1-((2-oxopyrrolidin-1-yl)methyl)-3,4-dihydroisoquinolin-2(1H)-yl)-N,2,3-trimethyl-4-oxobutanamide]
56	CNC(=O)[C@H]1CCCC[C@H]1C(=O)N1CCc2cccc(OCCNC(=O)c3noc4ccccc34)c2[C@H]1CN1C(=O)c2ccccc2C1=O [Example 12, N-(2-(((S)-1-((1,3-dioxoisoindolin-2-yl)methyl)-2-((1R,2S)-2-(methylcarbamoyl)cyclo-hexane-1-carbonyl)-1,2,3,4-tetrahydroisoquinolin-8-yl)oxy)ethyl)benzo[d] isoxazole-3-carboxamide]
788	CNC(=O)CCC(=O)N1CCc2cccc(O[C@H]3CCN(C(=O)c4cncs4)C3)c2[C@H]1CN1C(=O)c2ccccc2C1=O [Example 41, 4-((S)-1-((1,3-dioxoisoindolin-2-yl)methyl)-8-(((S)-1-(thiazole-5-carbonyl)pyrrolidin-3-yl)oxy)-3,4-dihydroisoquinolin-2(1H)-yl)-N-methyl-4-oxobutanamide]
72	CNC(=O)[C@H]1CCCC[C@H]1C(=O)N1CCc2c(Br)ccc(O[C@H]3CCN(C(C)=O)C3)c2[C@H]1CN1C(=O)c2ccccc2C1=O [Example 50, (1S,2R)-2-((S)-8-(((S)-1-acetylpyrrolidin-3-yl)oxy)-5-bromo-1-((1,3-dioxoisoindolin-2-yl)methyl)-1,2,3,4-tetrahydroisoquinoline-2-carbonyl)-N-methylcyclohexane-1-carboxamide]
2100	O=C(NCC(F)(F)F)[C@H]1CCCC[C@H]1C(=O)N1CCc2cccc(O[C@H]3CCN(C(=O)c4cncs4)C3)c2[C@H]1CN1C(=O)c2ccccc2C1=O [Example 32, (1S,2R)-2-((S)-1-((1,3-dioxoisoindolin-2-yl)methyl)-8-(((S)-1-(thiazole-5-carbonyl)pyrrolidin-3-yl)oxy)-1,2,3,4-tetrahydroisoquinoline-2-carbonyl)-N-(2,2,2-trifluoroethyl)cyclohexane-1-carboxamide]
196	Cc1cc(C(=O)NCCOc2cccc3c2[C@@H](CN2C(=O)c4ccccc4C2=O)N(C(=O)[C@@H]2CCCC[C@@H]2C(=O)NC2CC2)CC3)no1 [Example 7, N-(2-(((S)-2-((1R,2S)-2-(cyclopropylcarbamoyl)cyclohexane-1-carbonyl)-1-((1,3-dioxoisoindolin-2-yl)methyl)-1,2,3,4-tetrahydroisoquinolin-8-yl)oxy)ethyl)-5-methylisoxazole-3-carboxamide]
310	CNC(=O)[C@H]1CCCC[C@H]1C(=O)N1CCc2cccc(O[C@H]3CCN(C(=O)c4cncs4)C3)c2[C@H]1CN1CCOC1=O [Example 45, (1S,2R)-N-methyl-2-((S)-1-((2-oxooxazolidin-3-yl)methyl)-8-(((S)-1-(thiazole-5-carbonyl)pyrrolidin-3-yl)oxy)-1,2,3,4-tetrahydroisoquinoline-2-carbonyl)cyclohexane-1-carboxamide]
366	CNC(=O)[C@H]1CCCC[C@H]1C(=O)N1CCc2cccc(O[C@H]3CCN(S(=O)(=O)c4cnoc4C)C3)c2[C@H]1CN1C(=O)c2ccccc2C1=O [Example 16, (1S,2R)-2-((S)-1-((1,3-dioxoisoindolin-2-yl)methyl)-8-(((S)-1-((5-methylisoxazol-4-yl)sulfonyl)pyrrolidin-3-yl)oxy)-1,2,3,4-tetrahydroisoquinoline-2-carbonyl)-N-methylcyclohexane-1-carboxamide]
147	CNC(=O)[C@H]1CCCC[C@H]1C(=O)N1CCc2cccc(O[C@H]3CCN(C(C)=O)C3)c2[C@H]1CN1C(=O)c2ccccc2C1=O [Example 5, (1S,2R)-2-((S)-8-(((S)-1-acetylpyrrolidin-3-yl)oxy)-1-((1,3-dioxoisoindolin-2-yl)methyl)-1,2,3,4-tetrahydroisoquinoline-2-carbonyl)-N-methylcyclohexane-1-carboxamide]
1800	CNC(=O)[C@H]1CCCC[C@H]1C(=O)N1CCc2cccc(OCc3cnn(C)c3)c2[C@H]1CN1C(=O)c2ccccc2C1=O [Example 49, (1S,2R)-2-((S)-1-((1,3-dioxoisoindolin-2-yl)methyl)-8-((1-methyl-1H-pyrazol-4-yl)methoxy)-1,2,3,4-tetrahydroisoquinoline-2-carbonyl)-N-methylcyclohexane-1-carboxamide]
119	CNC(=O)[C@H]1CCCC[C@H]1C(=O)N1CCc2cccc(OCCNC(=O)c3nccs3)c2[C@H]1CN1C(=O)c2ccccc2C1=O [Example 18, N-(2-(((S)-1-((1,3-dioxoisoindolin-2-yl)methyl)-2-((1R,2S)-2-(methylcarbamoyl)cyclo-hexane-1-carbonyl)-1,2,3,4-tetrahydroisoquinolin-8-yl)oxy)ethyl)thiazole-2-carboxamide]
606	CNC(=O)[C@H]1CCCC[C@H]1C(=O)N1CCc2cccc(O[C@H]3CCN(C(=O)c4sc(C)nc4C)C3)c2[C@H]1CN1C(=O)c2ccccc2C1=O [Example 23, (1S,2R)-2-((S)-8-(((S)-1-(2,4-dimethylthiazole-5-carbonyl)pyrrolidin-3-yl)oxy)-1-((1,3-dioxoisoindolin-2-yl)methyl)-1,2,3,4-tetrahydroisoquinoline-2-carbonyl)-N-methylcyclohexane-1-carboxamide]
